Assay results taken from patent US20220288065A1, “MONOCYCLIC AGONISTS OF STIMULATOR OF INTERFERON GENES STING” (The Scripps Research Institute, priority 2019, published 2022).

System: THP-1 Lucia ISG cells
Experiment: ISG-LUC activation assay (ISRE-luciferase assay)
Format: cell-based
Conditions: Homo sapiens, THP1-Lucia ISG, activity score based upon potency and efficacy data, 24 hours
Source text: We have established a robust platform for identifying non-nucleotide small molecule STING agonists. This has been established using a primary assay involving a human THP-1 cell line carrying an IRF-inducible reporter with 5 copies of the IFN signaling response element. Counter screens, involving alternative reporter constructs, rodent cell-based assays, as well as cGAS and STING knock-out cell lines, are used to eliminate luciferase artifacts and ensure human-rodent cross species reactivity, as well as pathway selectivity. Biochemical assays, involving cGAS enzymatic activity and STING protein binding assays, are used to identify the specific target of identified hits.
Tissue culture. Wild-type (cat. no. thpl-isg) and STING KO (cat. no. thpd-kostg) THP-1-Lucia ISG cells were purchased from Invivogen and maintained in growth media consisting of RPMI 1640, 2 mM L-glutamine, 25 mM HEPES, 10% heat-inactivated fetal bovine serum (FBS), 1,000 units/ml penicillin, 1,000 μg/ml streptomycin, 0.25 μg/ml Amphotericin B, and 100 μg/ml zeocin unless otherwise stated.
ISRE-luciferase assay. THP-1 Lucia ISG cells were resuspended in low-serum growth media (2% FBS) at a density of 5×10^5 cells/ml and treated with test article or vehicle (DMSO). 50 μL of cells were seeded into each well of a 384-well white greiner plates and incubated for 24 hours. To evaluate expression of the luciferase reporter, 30 μl of Quanti-luc (Invivogen) detection reagent was added to each well and luminescence was read using an Envision plate reader (Perkin Elmer) set with an integration time of 0.1 seconds.

| EC50 [nM] | Compound |
| --- | --- |
| < 900 | C#Cc1cc(NC(=O)c2cn(-c3cn[nH]c3)nn2)c(C(=O)OC)cc1F [Compound 35] |
| > 1000 | C#Cc1cc(NC(=O)c2cn(-c3cn[nH]c3)nn2)c(C(=O)O)cc1F [Compound 36] |
| < 3000 | COC(=O)c1cc(Cl)c(Cl)cc1NC(=O)c1nc(-c2cn[nH]c2)no1 [Compound 37] |
| < 900 | C#Cc1cc(NC(=O)c2ccc(-c3cn[nH]c3)nn2)c(C(=O)O)nc1Cl [Compound 38] |
| > 1000 | COC(=O)c1sc(C)cc1NC(=O)c1ccc(-n2ccnc2)nn1 [Compound 39] |
| < 900 | COC(=O)c1cc(F)c(F)cc1NC(=O)c1ccc(-c2ccnc(N)c2)nn1 [Compound 40] |
| < 900 | COC(=O)c1cc(F)c(F)cc1NC(=O)c1cc(N)c(-n2ccnc2)nn1 [Compound 41] |
| > 1000 | COC(=O)c1cc(F)c(F)cc1NC(=O)c1cc(C)c(-n2ccnc2)nn1 [Compound 42] |
| > 1000 | COC(=O)c1cc(F)c(F)cc1NC(=O)c1nnc(-n2ccnc2)cc1C [Compound 43] |
| < 900 | C=Cc1cc(NC(=O)c2ccc(-c3cn[nH]c3)nn2)c(C(=O)O)cc1F [Compound 44] |
| > 1000 | COC(=O)c1cc(Cl)c(F)cc1NC(=O)c1ccncn1 [Compound 45] |
| > 1000 | C#Cc1cc(NC(=O)c2ccc(-c3cn[nH]c3)nn2)c(C(=O)O)cc1F [Compound 46] |
| > 1000 | COC(=O)NCc1cc(C(=O)Nc2cc(Cl)c(Cl)cc2C(=O)OC)nnc1-n1ccnc1 [Compound 47] |
| > 1000 | COC(=O)c1cc(Cl)c(Cl)cc1NC(=O)c1cc(CNC(N)=O)c(-n2ccnc2)nn1 [Compound 48] |
| > 1000 | O=C(Nc1cc(Cl)c(Cl)cc1C(=O)O)c1ccc(-c2cn[nH]c2)nn1 [Compound 49] |
| < 900 | COC(=O)c1cc(Cl)c(Cl)cc1NC(=O)c1ccc(-c2c[nH]nn2)nn1 [Compound 50] |
| > 1000 | O=C(Nc1cc(Cl)c(Cl)cc1C(=O)O)c1ccc(-c2c[nH]nn2)nn1 [Compound 51] |
| < 900 | O=C(Nc1cc(Cl)c(Cl)nc1C(=O)O)c1ccc(-c2cn[nH]c2)nn1 [Compound 52] |
| > 1000 | C#Cc1cc(NC(=O)c2ccc(-c3cn[nH]c3)nn2)c(C(=O)O)cc1Cl [Compound 53] |

| EC50 [nM] | Compound |
| --- | --- |
| > 20000 | C#Cc1cc(NC(=O)c2cnc(-c3cn[nH]c3)cn2)c(C(=O)OC)cc1F [Compound 55] |
| > 20000 | C#Cc1cc(NC(=O)c2ncc(-c3cn[nH]c3)cn2)c(C(=O)OC)cc1F [Compound 56] |
| < 900 | COC(=O)c1cc(Cl)c(F)cc1NC(=O)c1ccc(-c2cn[nH]c2)nn1 [Compound 57] |
| < 900 | COC(=O)c1cc(F)c(F)cc1NC(=O)c1ccc(-c2cn[nH]c2)nn1 [Compound 58] |
| < 900 | COC(=O)c1cc(F)c(F)cc1NC(=O)c1cc(NCc2ccc(OC)cc2)cnn1 [Compound 59] |
| < 900 | COC(=O)c1cc(F)c(F)cc1NC(=O)c1ccc(-c2ccncc2)nn1 [Compound 60] |
| > 1000 | COC(=O)NCCNc1cc(C(=O)Nc2cc(F)c(F)cc2C(=O)OCc2ccc(OC)cc2)nnc1-n1ccnc1 [Compound 61] |
| > 1000 | O=C(Nc1cc(F)c(F)cc1C(=O)O)c1ccc(-c2cn[nH]c2)nn1 [Compound 63] |
| > 1000 | O=C(Nc1cc(Cl)c(Cl)cc1C(=O)O)c1cn(-c2cn[nH]c2)nn1 [Compound 64] |
| > 1000 | COC(=O)c1cc(F)c(F)cc1NC(=O)c1cc(CN)c(-n2ccnc2)nn1 [Compound 65] |
| > 1000 | O=C(Nc1cc(F)c(Cl)cc1C(=O)O)c1ccc(-c2cn[nH]c2)nn1 [Compound 66] |
| > 1000 | O=C(Nc1cc(Cl)c(F)cc1C(=O)O)c1ccc(-c2cn[nH]c2)nn1 [Compound 67] |
| < 900 | COC(=O)c1cc(F)c(Cl)cc1NC(=O)c1ccc(-c2cn[nH]c2)nn1 [Compound 69] |
| > 20000 | COC(=O)c1cc(C#N)c(C#N)cc1NC(=O)c1ccc(-c2c(C#N)cnn2C)nn1 [Compound 71] |
| > 20000 | COC(=O)c1cc(Cl)c(Cl)cc1NC(=O)c1ccc(-c2nn(C)cc2C#N)nn1 [Compound 73] |
| > 1000 | COC(=O)c1cc(Cl)c(Cl)cc1NC(=O)c1cc(CCCN)c(-n2ccnc2)nn1 [Compound 74] |
| < 900 | C#Cc1cc2nc(-c3ccc(-n4ccnc4)nn3)oc(=O)c2cc1F [Compound 75] |
| < 900 | C#Cc1cc(NC(=O)c2ccc(-n3ccnc3)nn2)c(C(=O)OCC)nc1Cl [Compound 76] |
| < 900 | C#Cc1cc(NC(=O)c2ccc(-n3ccnc3)nn2)c(C(=O)O)nc1Cl [Compound 77] |

Continued, compound first:

| Compound | EC50 [nM] |
| --- | --- |
| C#Cc1cc(NC(=O)c2ccc(-c3ccncc3)nn2)c(C(=O)O)cc1F [Compound 1, lithium 4-ethynyl-5-fluoro-2-(6-(pyridin-4-yl)pyridazine-3-carboxamido) benzoate] | < 900 |
| COC(=O)c1cc(F)c(F)cc1NC(=O)c1nnc(-n2ccnc2)cc1CN [Compound 2, methyl 2-(4-(aminomethyl)-6-(1H-imidazol-1-yl)pyridazine-3-carboxamido)-4,5-difluorobenzoate] | > 1000 |
| C#Cc1cc2nc(-c3ccc(-c4ccncc4)nn3)oc(=O)c2cc1F [Compound 3, 7-ethynyl-6-fluoro-2-(6-(pyridin-4-yl)pyridazin-3-yl)-4H-benzo[d][1,3]oxazin-4-one] | < 900 |
| COC(=O)c1cc(F)c(F)cc1NC(=O)c1ccc(-n2ccnc2CO)nn1 [Compound 4] | < 3000 |
| COC(=O)c1cc(F)c(F)cc1NC(=O)c1ccc(C#N)nn1 [Compound 5] | > 1000 |
| CS(=O)(=O)NCCNc1cc(C(=O)Nc2cc(F)c(F)cc2C(=O)O)nnc1-n1ccnc1 [Compound 6] | > 1000 |
| COC(=O)c1cc(F)c(F)cc1NC(=O)c1nnc(-n2ccnc2)cc1CO [Compound 7] | < 900 |
| COC(=O)c1cc(F)c(F)cc1NC(=O)c1ccc(N)nn1 [Compound 8] | > 1000 |
| COC(=O)c1cc(F)c(F)cc1NC(=O)c1ccc(CC#N)nn1 [Compound 9] | > 1000 |
| COC(=O)c1cc(F)c(F)cc1NC(=O)c1ccc(-c2cccnc2)nn1 [Compound 10] | > 1000 |
| CCOC(=O)Nc1ccc(C(=O)Nc2cc(F)c(F)cc2C(=O)O)nn1 [Compound 11] | > 1000 |
| COC(=O)c1cc(Cl)c(OC)cc1NC(=O)c1cc(N)ncn1 [Compound 12] | > 1000 |
| NC(=O)c1ccc(C(=O)Nc2cc(F)c(F)cc2C(=O)O)cn1 [Compound 13] | > 20000 |
| Nc1n[nH]cc1-c1ccc(C(=O)Nc2cc(F)c(F)cc2C(=O)O)nn1 [Compound 14] | > 1000 |
| COC(=O)c1cc(F)c(F)cc1NC(=O)c1ccc(-c2c[nH]nn2)nn1 [Compound 15] | < 900 |
| COC(=O)c1cc(F)c(F)cc1NC(=O)c1cc(C(N)=O)cnn1 [Compound 16] | > 1000 |
| COC(=O)c1cc(F)c(F)cc1NC(=O)c1ccc(CO)nn1 [Compound 17] | < 3000 |
| COC(=O)c1cc(Cl)c(Cl)cc1NC(=O)c1ccc(N)nn1 [Compound 18] | > 1000 |
| COc1cncc(-c2ccc(C(=O)Nc3cc(F)c(F)cc3C(=O)O)nn2)c1 [Compound 19] | > 1000 |

| Compound | EC50 [nM] |
| --- | --- |
| COC(=O)c1cc(F)c(F)cc1NC(=O)c1cc(N)cnn1 [Compound 20] | < 900 |
| O=C(Nc1cc(F)c(F)cc1C(=O)O)c1ccc(-c2cccnc2)nn1 [Compound 21] | > 1000 |
| COC(=O)c1cc(Cl)c(Cl)cc1NC(=O)c1cn(-c2cnn(C(=O)OC(C)(C)C)c2)nn1 [Compound 22] | > 1000 |
| COC(=O)c1cc(Cl)c(Cl)cc1NC(=O)c1cn(-c2cn[nH]c2)nn1 [Compound 23] | < 900 |
| COC(=O)c1cc(Cl)c(Cl)cc1NC(=O)c1nnc(-n2ccnc2)cc1CN [Compound 24] | < 900 |
| COC(=O)c1cc(Cl)c(Cl)cc1NC(=O)c1ccc(-n2ccnc2)cn1 [Compound 25] | > 1000 |
| COC(=O)c1cc(Cl)c(Cl)cc1NC(=O)c1cc(CN)c(-n2ccnc2)nn1 [Compound 26] | < 900 |
| COC(=O)c1cc(C#N)c(Cl)cc1NC(=O)c1ccc(-c2c(Br)cnn2C)nn1 [Compound 27] | > 20000 |
| N#Cc1n[nH]cc1-c1ccc(C(=O)Nc2cc(Cl)c(F)cc2C(=O)O)nn1 [Compound 28] | > 1000 |
| O=C(Nc1cc(Cl)c(F)cc1C(=O)O)c1ccc(-c2cnsc2)nn1 [Compound 29] | < 900 |
| COC(=O)c1cc(C#N)c(Cl)cc1NC(=O)c1ccc(-c2c[nH]nn2)nn1 [Compound 30] | < 900 |
| O=C(Nc1cc(Cl)c(F)cc1C(=O)O)c1ccc(-c2ccns2)nn1 [Compound 31] | < 900 |
| Cn1cc(C#N)c(-c2ccc(C(=O)Nc3cc(Cl)c(Cl)cc3C(=O)O)nn2)n1 [Compound 32] | > 20000 |
| O=C(Nc1cc(Cl)c(Cl)nc1C(=O)O)c1ccc(-c2cc[nH]n2)nn1 [Compound 33] | > 1000 |
| COC(=O)c1nc(Cl)c(Cl)cc1NC(=O)c1ccc(-c2cc[nH]n2)nn1 [Compound 34] | < 900 |
| COC(=O)c1cc(C#N)c(Cl)cc1NC(=O)c1ccc(-c2cn[nH]c2)nn1 [Compound 68] | < 900 |
| N#Cc1cc(C(=O)O)c(NC(=O)c2ccc(-c3cn[nH]c3)nn2)cc1Cl [Compound 70] | > 20000 |
| N#Cc1cc(C(=O)O)c(NC(=O)c2ccc(-c3c[nH]nn3)nn2)cc1Cl [Compound 72] | > 20000 |
